Paper PMC9495681, “Examining Topoisomers of a Snake-Venom-Derived Peptide for Improved Antimicrobial and Antitumoral Properties” (Biomedicines, 2022)
Values after ≈ are worked out from the molar mass of the structure shown. Peptide text beside a SMILES is read from it.

Tests used:
[1] = tested on: human erythrocytes; assay: Hemolytic activity; type: cell-based; settings: up to 100 μM; 4% (v/v) human erythrocytes in PBS, 30 min at 37 °C, OD 540 nm, triplicate
Description: Fresh human blood (10 mL) was collected in EDTA tubes and centrifuged at 1000× g for 10 min at 4 °C. After plasma removal, the pellet containing the erythrocytes was washed 3× with phosphate-buffered saline (PBS) and resuspended to an 8% (v/v) suspension in PBS. Then, 100 μL of the suspension was added to a final concentration of 4% (v/v) to microfuge tubs containing 2-fold serially diluted peptides (0.2–100 μM). The suspension was incubated for 30 min at 37 °C with agitation, then centrifuged for 2 min at 1000× g. The supernatant was transferred to 96-well plates, and hemoglobin was measured by OD at 540 nm in a Synergy HTX plate reader (BioTek). Positive and negative controls were 1% (v/v) Triton X-100 and untreated erythrocytes (4% v/v in PBS), respectively. Measurements were done in triplicate. Hemolysis was calculated as:(2) % Hemolysis=[OD540peptide]−[OD540PBS]/[OD540Triton]−[OD540PBS]·100

[2] = tested on: 1BR3G human fibroblasts; assay: Peptide cytotoxicity (Cell Titer Blue viability); type: cell-based; settings: 24 h treatment, medium with 2% FBS, Cell Titer Blue fluorescence, triplicate
Excerpt: (§1) Human HeLa S3 (cervix epithelial carcinoma), leukemia Jurkat E6.1 (T-cell lineage), U937 (histiocytic lymphoma), THP-1 (acute monocytic leukemia), and 1BR3G human fibroblasts were obtained from the Cell Lines Repository of the Institut Municipal d’Investigació Medica (Barcelona, Spain). BxPC3 (pancreas adenocarcinoma), A549 (lung carcinoma), SH-Sy5Y (neuroblastoma), Panc1 (epithelioid carcinoma), 786-O (renal cell adenocarcinoma), and HT29 (colorectal adenocarcinoma) were obtained from the Integrative Biomedical Materials and Nanomedicine lab at UPF (Barcelona, Spain). HeLa S3, Jurkat E6.1, U937, THP-1, Panc1, and 786-O were cultured in Roswell Park Memorial Institute medium (RPMI) supplemented with 10% fetal bovine serum (FBS) and 1% penicillin/streptomycin solution and maintained at 37 °C in a humidified atmosphere with 5% of CO2. 1BR3G, BxPC3, A549, and HT29 were cultured in Dulbecco’s Modified Eagle’s Medium (DMEM) supplemented with 10% FBS and 1% penicillin/streptomycin solution and maintained at 37 °C in a humidified atmosphere with 5% of CO2. SH-Sy5Y was cultured in DMEM supplemented with 15% FBS and 1% penicillin/streptomycin and maintained at 37 °C in a humidified atmosphere with 5% of CO2. Cultures were maintained at 10^5–10^6 cell/mL densities. For 1BR3G human fibroblasts, BxPC3, A549, SH-Sy5Y, Panc1, 786-O, and HT29 were split every time they reached 80–90% of confluence after harvesting with PBS and trypsin.
(§2) About 60,000 cells were added to different microfuge tubes containing 2-fold serial dilution of the peptide, with a final concentration in the range between 0.1–100 μM in RPMI containing 2% of FBS. After 30 min incubation at 37 °C and 5% of CO2, […] of medium containing approximately 10,000 treated cells were transferred to a 96-well plate. Then, 15 μL of Cell Titer Blue dye (Promega, Madison, WI, USA) was added, and plates were reincubated for 24 h. Fluorescence was read at 4 and 24 h after dye addition in a Synergy HTX (BioTek, Winooski, VT, USA) reader, with λexc = 560 nm and λem = 620 nm. In the case of adherent cultures, 5000 cells/well were seeded in 96-well plates. After 24 h incubation at 37 °C and 5% of CO2, the medium was removed, and a new medium with 2% of FBS containing the various 2-fold dilution of the peptides was added. After a further 30 min, 15 μL of Cell Titer Blue dye was added to each well, and the measurement was done as above. Relative viability was calculated relative to a cell with only 2% FBS in the corresponding medium as a control (100% viability). All assays were conducted in triplicate.

[3] = tested on: E. coli (BW25113); assay: Minimal inhibitory concentration (MIC), broth microdilution; type: cell-based; settings: Mueller Hinton Broth, 5 × 10^5 CFU/mL, 0.04% BSA and 0.002% acetic acid, 20–22 h at 37 °C, duplicate
Description: (§3) Assays were performed on three Gram-negative bacteria: E. coli (BW25113, Coli Genetic Stock Center), A. baumannii (ATCC 15308, CECT, Valencia, Spain), and Pseudomonas sp. (ATCC15915, CECT). The minimal inhibitory concentration (MIC) of each peptide was determined as described by Wiegand et al.. Peptide stocks in water were added to polypropylene 96-well plates (Greiner, Frickenhausen, Germany) and serially diluted from 100 to 0.2 μM. Fresh bacteria were incubated at 37 °C in Mueller Hinton Broth (MHB, Condalab, Torrejón de Ardoz, Spain) up to exponential growth and diluted to a final inoculum of 5 × 10^5 CFU/mL. BSA and acetic acid at 0.04% (w/v) and 0.002% (v/v) final concentration, respectively, were added to avoid peptide self-aggregation. Plates were incubated for 20–22 h at 37 °C. Each peptide was tested in duplicate. MIC values were the lowest peptide concentration where bacterial growth was not detected.

[4] = tested on: A. baumannii (ATCC 15308); assay: as above; type: cell-based; settings: Mueller Hinton Broth, 5 × 10^5 CFU/mL, 0.04% BSA and 0.002% acetic acid, 20–22 h at 37 °C, duplicate
Description: as §3

[5] = tested on: Pseudomonas sp. (ATCC15915); assay: as above; type: cell-based; settings: Mueller Hinton Broth, 5 × 10^5 CFU/mL, 0.04% BSA and 0.002% acetic acid, 20–22 h at 37 °C, duplicate
Description: as §3

[6] = tested on: BxPC3, A549, Panc1, 786-O, and HT29; assay: Peptide cytotoxicity (Cell Titer Blue viability), non-leukemia cell lines of Figure 2; type: cell-based, Human; settings: peptide treatment 24 h, triplicate, read-out: IC50, other cancer cell lines (non-leukemia, other than SH-Sy5Y)
Excerpt: Human HeLa S3 (cervix epithelial carcinoma), leukemia Jurkat E6.1 (T-cell lineage), U937 (histiocytic lymphoma), THP-1 (acute monocytic leukemia), and 1BR3G human fibroblasts were obtained from the Cell Lines Repository of the Institut Municipal d’Investigació Medica (Barcelona, Spain). BxPC3 (pancreas adenocarcinoma), A549 (lung carcinoma), SH-Sy5Y (neuroblastoma), Panc1 (epithelioid carcinoma), 786-O (renal cell adenocarcinoma), and HT29 (colorectal adenocarcinoma) were obtained from the Integrative Biomedical Materials and Nanomedicine lab at UPF (Barcelona, Spain). HeLa S3, Jurkat E6.1, U937, THP-1, Panc1, and 786-O were cultured in Roswell Park Memorial Institute medium (RPMI) supplemented with 10% fetal bovine serum (FBS) and 1% penicillin/streptomycin solution and maintained at 37 °C in a humidified atmosphere with 5% of CO2. […]
About 60,000 cells were added to different microfuge tubes containing 2-fold serial dilution of the peptide, with a final concentration in the range between 0.1–100 μM in RPMI containing 2% of FBS. […] Fluorescence was read at 4 and 24 h after dye addition in a Synergy HTX (BioTek, Winooski, VT, USA) reader, with λexc = 560 nm and λem = 620 nm. […] Relative viability was calculated relative to a cell with only 2% FBS in the corresponding medium as a control (100% viability). […]

[7] = tested on: Jurkat E6.1; assay: Peptide cytotoxicity (Cell Titer Blue viability); type: cell-based, Human; settings: peptide treatment 24 h, medium with 2% FBS, Cell Titer Blue fluorescence, triplicate
Excerpt: as §1, §2

[8] = tested on: SH-Sy5Y (neuroblastoma); assay: Peptide cytotoxicity (Cell Titer Blue viability); type: cell-based, Human; settings: peptide treatment 24 h, medium with 2% FBS, Cell Titer Blue fluorescence, triplicate
Excerpt: as §1, §2

[9] = tested on: THP-1; assay: Peptide cytotoxicity (Cell Titer Blue viability); type: cell-based, Human; settings: peptide treatment 24 h, medium with 2% FBS, Cell Titer Blue fluorescence, triplicate
Excerpt: as §1, §2

[10] = tested on: HeLa S3; assay: Peptide cytotoxicity (Cell Titer Blue viability); type: cell-based, Human; settings: peptide treatment 24 h, medium with 2% FBS, Cell Titer Blue fluorescence, triplicate
Excerpt: as §1, §2

[11] = tested on: U937; assay: Peptide cytotoxicity (Cell Titer Blue viability); type: cell-based, Human; settings: peptide treatment 24 h, medium with 2% FBS, Cell Titer Blue fluorescence, triplicate
Excerpt: as §1, §2

| SMILES | Hemolytic effect (in words) [1] | IC50 (cell viability) human fibroblast 1BR3G [2] | MIC E. coli [3] | MIC A. baumannii [4] | MIC Pseudomonas sp. [5] | IC50 [6] | IC50 [7] | IC50 [8] | IC50 [9] | IC50 [10] | IC50 [11] |
| --- | --- | --- | --- | --- | --- | --- | --- | --- | --- | --- | --- |
| CC[C@H](C)[C@H](NC(=O)[C@H](CCCCN)NC(=O)[C@H](CCCCN)NC(=O)[C@H](CC(C)C)NC(=O)[C@H](CCCNC(=N)N)NC(=O)[C@H](CCCCN)NC(=O)[C@@H](N)CCCCN)C(=O)N[C@@H](Cc1ccccc1)C(=O)N[C@@H](CCCCN)C(=O)N[C@@H](CCCCN)C(=O)N1CCC[C@H]1C(=O)N[C@@H](CCSC)C(=O)N[C@H](C(=O)N[C@H](C(=O)NCC(=O)N[C@H](C(=O)N[C@H](C(=O)N[C@H](C(=O)N1CCC[C@H]1C(=O)N[C@@H](Cc1ccccc1)C(N)=O)[C@@H](C)CC)[C@@H](C)O)C(C)C)[C@@H](C)CC)C(C)C [Ctn[15-34]] (H-KKRLKKIFKKPMVIGVTIPF-NH2) | totally nonhemolytic | ≈ 14.32 μM | <0.005 µM | 0.78 µM (≈ 1.85 µg/mL) | <0.05 µM | – | – | – | – | – | – |
| CC[C@H](C)[C@H](NC(=O)[C@H](CCCCN)NC(=O)[C@H](CCCCN)NC(=O)[C@H](CC(C)C)NC(=O)[C@H](CCCNC(=N)N)NC(=O)[C@H](CCCCN)NC(=O)[C@H](CCCCN)NC(=O)[C@@H](NC(=O)[C@H](CO)NC(=O)[C@H](CCCCN)NC(=O)[C@H](CCCCN)NC(=O)[C@@H](NC(=O)[C@H](CCCCN)NC(=O)[C@H](CCCCN)NC(=O)[C@H](Cc1ccccc1)NC(=O)[C@H](Cc1ccccc1)NC(=O)[C@H](CCCCN)NC(=O)[C@H](CCCCN)NC(=O)[C@H](Cc1ccccc1)NC(=O)[C@H](CCCNC(=N)N)NC(=O)[C@@H](N)CCCCN)C(C)C)C(C)C)C(=O)N[C@@H](Cc1ccccc1)C(=O)N[C@@H](CCCCN)C(=O)N[C@@H](CCCCN)C(=O)N1CCC[C@H]1C(=O)N[C@@H](CCSC)C(=O)N[C@H](C(=O)N[C@H](C(=O)NCC(=O)N[C@H](C(=O)N[C@H](C(=O)N[C@H](C(=O)N1CCC[C@H]1C(=O)N[C@@H](Cc1ccccc1)C(N)=O)[C@@H](C)CC)[C@@H](C)O)C(C)C)[C@@H](C)CC)C(C)C [Ctn] (H-KRFKKFFKKVKKSVKKRLKKIFKKPMVIGVTIPF-NH2) | – | – | – | 0.78 µM (≈ 3.24 µg/mL) | <0.05 µM | ≥ 10000 nM | < 1000 nM | ~2610 nM | < 1000 nM | ~3470 nM | < 1000 nM |
